The text below walks through data of patent US10030016B2 (Sunesis Pharmaceuticals, Inc., priority 2009, dated 2018).

For one test, the target named is PDK1 (Homo sapiens (Human), UniProt O15530). As to the kind of experiment: PDK1 kinase assay (coupled PDK1/AKT/FAM-crosstide assay, IMAP fluorescence polarization). The test is classed as biochemical. A digest of the protocol:
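PDK1 activity is measured indirectly through activation of a PIFtide-fused AKT2 construct that phosphorylates FAM-crosstide (100 nM). The reaction uses 0.75 nM PDK1, 40 μM ATP, 30 min, 25° C, with IMAP polarization detection.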

Test [1] deals with phospho-akt (Thr308) in PC-3 cells. Briefly: Inhibition of phospho-akt (Thr308) in PC-3 cells, MSD phospho-akt 308 ELISA kit. The test is classed as cell-based. As to conditions: 2 hours, no serum, read-out: EC50. A digest of the protocol:
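Serum-free 2 h compound exposure of overnight-seeded PC-3 cells, threefold dilution series; lysates analysed on blocked MSD plates (3% BSA) for Thr308-phosphorylated Akt, normalised between DMSO and 5 μM wortmannin wells.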

Setting [2] is: inhibition of phospo-PDK1 in vitro.
[3] abbreviates: Homo sapiens, inhibition of P308 Akt in PC-3 cells, MSD.
The mark [4] stands for this setting: Homo sapiens, inhibition of P308 Akt in PC-3 cells using MSD.

Each structure is given as a SMILES string. Read-outs that look alike come from different tables or passages of the source.

Sequence of PDK1 (O15530 51-359): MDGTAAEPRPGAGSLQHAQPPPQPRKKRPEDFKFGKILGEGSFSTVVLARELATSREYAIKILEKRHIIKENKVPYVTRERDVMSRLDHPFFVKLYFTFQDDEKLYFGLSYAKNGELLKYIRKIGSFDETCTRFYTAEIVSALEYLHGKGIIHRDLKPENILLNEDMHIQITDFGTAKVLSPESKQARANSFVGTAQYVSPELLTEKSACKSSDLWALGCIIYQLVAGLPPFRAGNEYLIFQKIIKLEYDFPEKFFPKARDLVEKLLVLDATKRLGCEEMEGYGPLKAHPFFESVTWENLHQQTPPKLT

`O=C(NCc1ccc(F)c(F)c1)c1cc(C(F)(F)F)cnc1N[C@@H](COc1ccc2[nH]c(=O)[nH]c2c1)c1ccccc1` [Example 16.4, (R)-N-(3,4-difluorobenzyl)-2-(2-(2-oxo-2,3-dihydro-1H-benzo[d]imidazol-5-yloxy)-1-phenylethylamino)-5-(trifluoromethyl)nicotinamide] came in with an IC50 against PDK1 (setting [2]) of 1000 to 5000 nM. In addition, the EC50 in test [1] (Homo sapiens, PC-3, 2 h, inhibition of P308 Akt in PC-3 cells, MSD) is 1000 to 10000 nM.

At PDK1 (setting [2]), `C[C@H](NC(=O)c1cccnc1NCc1ccc(-c2ccc3ncc4ncn(C)c4c3c2)s1)c1ccc(F)cc1` [Example 2.18] returned a half-inhibitory concentration (IC50) of 100 to 1000 nM. Moreover, in test [1] (setting [3]), the EC50 was under 1000 nM.

For the compound `C[C@H](NC(=O)c1cc(C#N)cnc1NCc1ccc(-c2nc3c(N)ncnc3[nH]2)cc1)c1ccc(F)cc1` [Example 113, (S)-2-(4-(6-amino-9H-purin-8-yl)benzylamino)-5-cyano-N-(1-(4-fluorophenyl)ethyl) nicotinamide], the IC50 against PDK1 (inhibition of PDK1 in vitro) is under 100 nM. Besides, in test [1] (inhibition of P308 Akt in PC-3 cells using MSD), the EC50 is over 10000 nM.

At PDK1 (setting [2]), `CC(C)Oc1cc(CNc2ncccc2C(=O)NCc2ccc(F)c(F)c2)cc(-c2ccc3ncnc(N)c3c2)c1` [Example 5.6] registered a half-maximal inhibitory concentration (IC50) of under 100 nM. Moreover, the half-maximal effective concentration (EC50) in test [1] (setting [3]) was in the range of 1000 to 10000 nM.

Regarding `O=C(NCc1ccc(F)c(F)c1)c1cccnc1NCc1ccc(-c2ccc3ncnc(N4CCC4)c3c2)s1` [Example 4.9, 2-(((5-(4-(azetidin-1-yl)quinazolin-6-yl)thiophen-2-yl)methyl)amino)-N-(3,4-difluorobenzyl)nicotinamide], the IC50 at PDK1 (setting [2]) was under 100 nM. The EC50 in test [1] (setting [3]) was 1000 to 10000 nM.

At PDK1 (inhibition of PDK1 in vitro), `C[C@H](NC(=O)c1cc(C#N)cnc1N[C@H](C)c1ccc(-c2c[nH]c3ncnc(N)c23)cc1)c1ccc(F)cc1` [Example 432, 2-{(R)-1-[4-(4-Amino-7H-pyrrolo[2,3-d]pyrimidin-5-yl)-phenyl]-ethylamino}-5-cyano-N-[(S)-1-(4-fluoro-phenyl)-ethyl]-nicotinamide] showed an IC50 of under 100 nM. Besides, the EC50 in test [1] (setting [4]) was under 1000 nM.

Turning to `Nc1ncc(-c2ccc(CNc3ncc(C(F)(F)F)cc3C(=O)Nc3ccc(F)cc3)cc2)nc1CCC1CCCNC1` (stereo not shown) [Example 77, 2-{4-[5-Amino-6-(2-piperidin-3-yl-ethyl)-pyrazin-2-yl]-benzylamino}-N-(4-fluoro-phenyl)-5-trifluoromethyl-nicotinamide], the 50% inhibitory concentration (IC50) against PDK1 (inhibition of PDK1 in vitro) is under 100 nM. In addition, in test [1] (setting [4]), the EC50 was in the range of 1000 to 10000 nM.

As to `CC(C)Oc1cc(CNc2ncccc2C(=O)NCC(F)(F)F)cc(-c2c[nH]c3ncc(C(=O)NC4CC4)cc23)c1` [Example 4.1.5, N-cyclopropyl-3-{3-(propan-2-yloxy)-5-[({3-[(2,2,2-trifluoroethyl)carbamoyl]pyridin-2-yl}amino)methyl]phenyl}-1H-pyrrolo[2,3-b] pyridine-5-carboxamide], at PDK1 (setting [2]), the concentration for half-maximal inhibition (IC50) was over 5000 nM. Also, in test [1] (setting [3]), the EC50 was over 10000 nM.

On PDK1 (inhibition of PDK1 in vitro), `CC(Nc1ncc(C#N)nc1C(=O)N[C@@H](C)c1ccc(F)c(F)c1)c1ccc(-c2cnc3[nH]nc(N)c3c2)cc1` (stereo in doubt) [Example 350, 3-((R)-1-(4-(3-amino-1H-pyrazolo[3,4-b]pyridin-5-yl)phenyl)ethylamino)-6-cyano-N-((S)-1-(3,4-difluorophenyl)ethyl) pyrazine-2-carboxamide] displayed a 50% inhibitory concentration (IC50) of over 5000 nM. Further, the EC50 in test [1] (setting [4]) is over 10000 nM.

For the compound `C[C@H](NC(=O)c1nc(C#N)cnc1NCc1ccc(-c2c[nH]c3ncnc(N)c23)cc1)c1ccc(F)c(F)c1` [Example 315, (S)-3-(4-(4-amino-7H-pyrrolo[2,3-d]pyrimidin-5-yl)benzylamino)-6-cyano-N-(1-(3,4-difluoro-phenyl)ethyl)pyrazine-2-carboxamide], the IC50 against PDK1 (inhibition of PDK1 in vitro) is under 100 nM. For the same compound, the half-maximal effective concentration (EC50) in test [1] (setting [4]) was under 1000 nM.

For the compound `O=C(NCc1ccc(F)c(F)c1)c1cccnc1NCc1csc(-c2c[nH]c3ncccc23)n1` [Ex. 6.12, N-(3,4-difluorobenzyl)-2-({[2-(1H-pyrrolo[2,3-b]pyridin-3-yl)-1,3-thiazol-4-yl]-methyl}amino) pyridine-3-carboxamide], at PDK1 (setting [2]), the concentration for half-maximal inhibition (IC50) was under 100 nM. In test [1] (setting [3]), the EC50 is under 1000 nM.
